The values that follow come from patent publication US7964613B2 (Asahi Kasei Pharma Corporation, priority 2007, dated 2011).

In general, IC50 refers to the concentration that inhibits the measured activity by half.

The subject of experiment [1] is intraocular pressure. Nature of the experiment: Rabbit intraocular pressure reduction enhancing action, Test Example 7-1 (combination use). The experiment is classed as in vivo, Japanese white rabbit. To be noted: 19-1 compound 0.01 weight % aqueous solution 50 μL, left-right eye difference at 2, 4, 6 hours, six rabbits. The method, then:
However, the effect is not limited to the 19-1 compound, and the ophthalmic solution concentration of the 19-1 compound is not limited to those used in this test example. Moreover, as for the test compound used for combination use, similar effect can be obtained also with the compounds of the present invention represented with the example numbers mentioned in Test Example 3.
As a test compound, the 19-1 compound was dissolved in physiological saline, and the solution was neutralized by addition of sodium hydroxide (pH 7.0 to 8.0) to prepare a 0.01 weight % aqueous solution (19-1 compound aqueous solution). As the drugs for combination use, isopropyl unoprostone (trade name: Rescula, Santen Pharmaceutical) was used as a prostaglandin-related drug, and brinzolamide hydrochloride (trade name: Azopt, Alcon Japan) was used as […], as the marketed formulations as they were.
A Japanese white rabbit having a body weight of about 2 kg was placed in a positioner and naturalized for one week before the experiment. An opthalmologic local anesthesant (Benoxil) was administered to both eyes, and then intraocular pressure before instillation was measured by using a tonometer (Classic 30, Solan). A test aqueous solution or the drug for combination use was administered to the left eye, and the right eye was not treated (control eye). The test groups consisted of (1) control group, (2) group instilled only with the 19-1 compound aqueous solution (single drug group 1), (3) group instilled only with the drug for combination use (single drug group 2), and (4) group instilled with the drug for combination use and the 19-1 compound aqueous solution (combination use group), and six rabbits were used for each group. As for the rabbits of these groups, 50 μL of physiological saline was first instilled to the control group, single drug group 1, and single drug group 2, and the drug for combination use was first instilled in the same volume to the combination use group. […] The intraocular pressure thereafter was measured for each group 2, 4 and 6 hours after the second administration of the test compound, and the difference of the measured values for the left and right eyes at each measurement time was considered an intraocular pressure reduction value of each group. The largest difference of the intraocular pressure values for the left and right eyes among those of the measured values of the measurement times was considered the maximum intraocular pressure reduction value (max ? IOP) of each drug group.

Experiment [2] deals with intraocular pressure. Nature of the experiment: Intraocular pressure reduction enhancing action in monkey. The experiment is classed as in vivo. To be noted: cynomolgus monkey, 0.01 weight % aqueous solution, 30 μL. The method, then: Moreover, as for the test compound used for combination use, similar effect can be obtained also with the compounds of the present invention represented with the example numbers mentioned in Test Example 3. The test is performed by using cynomolgus monkeys sufficiently naturalized for the operation of fixation on a monkey chair and ophathalmotonometry.
As the test compound, the 19-1 compound is dissolved in physiological saline, and the solution is neutralized by addition of sodium hydroxide (pH 7.0 to 8.0) to prepare a 0.01 weight % aqueous solution (19-1 compound aqueous solution). As a drug for combination use, latanoprost (trade name: Xalatan, Pfizer) is used as the marketed formulation per se. The test aqueous solution or the drug for combination use is instilled to the left eye, and the right eye is not treated (control eye). […] After initial intraocular pressure values of the monkeys are measured for each group, 30 μL of physiological saline is instilled to the control group, single drug group 1, and single drug group 2, and latanoprost is instilled in the same volume to the combination use group. […] Then, the intraocular pressure is measured over time for each group.

For experiment [3], the system named is thoracic aorta ring sample. As to the kind of experiment: Rat vascular smooth muscle relaxing action (phenylephrin contraction). To be noted: cumulative phenylephrin, contraction relative to 60 mM KCl. The method, then: Examination of rat vascular smooth muscle relaxing action was performed as follows. A rat was anesthetized with pentobarbital sodium, and bled from the carotid artery, and then the thoracic aorta was extracted. The extracted vessel was immersed in ice-cooled Krebs-Henseleit nutrient solution bubbled with a mixed gas of 95% O2+5% CO2 to wash out the blood in the internal cavity of the vessel with the nutrient solution, and then stored overnight in the nutrient solution at 4° C. Then, connective tissues and lipids were removed from the vessel under a stereoscopic microscope, and a ring sample having a width of about 3 mm was prepared. The ring sample was hung in an organ bath containing the nutrient solution of 37° C., and a resting tension of 2.5 g was loaded on the sample. After the ring sample was stabilized for about 90 minutes, it was confirmed that a contraction reaction could be obtained by addition of 60 mM KCl alone. A test drug was added to the nutrient solution at an appropriate final concentration, and incubation was performed for 10 minutes. Then, phenylephrin was cumulatively added so that the concentration should become 1 nM, 10 nM, 100 nM, 1 μM and 10 μM.

For the next experiment, the system named is hippocampus nerve cells. Nature of the experiment: Effect of neurite outgrowth. The experiment is classed as cell-based, Wistar rat. As to conditions: 22 hours. The method, then: A Lab-Tek culture slide (4-well) was coated with poly-L-lysine (Sigma). A pregnant Wistar rat was used, and anesthetized with ether on day 18 of gestation. Then, a rat fetus was taken out from the rat, and the hippocampus was extracted from the brain of the fetus, put into a phosphate buffered physiological saline containing 0.1% trypsin, and incubated at 37° C. for 10 minutes. The hippocampus precipitated by centrifugation was ground in a medium containing 10% heat-inactivated fetal bovine serum by using a pipet to obtain hippocampus nerve cells. The cells were finally suspended in a medium containing B27 Supplement (Gibco), and plated on the preliminarily coated Lab-Tek culture slide at a density of 50,000 cells/well. After adhesion of the cells (about 2 hours), a drug was added at a desired concentration, and the slide was further incubated at 37° C. for 22 hours under 5% CO2. […]
After the incubation, the cells were fixed with 4% paraformaldehyde, and immunostained by using rabbit anti-beta-III-tubulin antibodies (Covance). Images of the nerve cells were captured into a computer by using a digital camera (DP-70, Olympus) installed in a fluorescence microscope (Olympus). Images of 20 to 30 of arbitrary sites on the slide were captured, and lengths of the axial fivers of 200 to 300 nerve cells were measured by using NIH imaging software for each drug. […]

As to `N[C@H]1CCN(S(=O)(=O)c2cccc3cncc(Cl)c23)C1` [Example 19-1, (S)-3-Amino-1-(4-chloro-5-isoquinolinesulfonyl)pyrrolidine], the “Max IOP (maximum intraocular pressure reduction value)” value in the experiment with intraocular pressure [1] (Table 4, Azopt 50 μL) is recorded as 4.3 mmHg; in the experiment on intraocular pressure [1] (Table 5, Rescula 50 μL), 4.3 mmHg. Besides, in the experiment on intraocular pressure [2], the “intraocular pressure reducing action in single drug group 1” value is recorded as “exceeding that of the control group”.
Turning to `CN[C@H]1CCN(S(=O)(=O)c2cccc3cncc(Cl)c23)C1` [Example 19-3, (S)-1-(4-Chloro-5-isoquinolinesulfonyl)-3-(methylamino)pyrrolidine], the IC50 in experiment [3] came out at 0.3 µM.
Turning to `CN[C@H]1CCN(S(=O)(=O)c2cccc3c(O)ncc(Cl)c23)C1` [Example 36-1, (S)-1-(1-Hydroxy-4-chloro-5-isoquinolinesulfonyl)-3-(methylamino)pyrrolidine], the entries for the “neurites extended compared with non-treated nerve cells” value in the experiment with hippocampus nerve cells (concentration of 1 μM) and in the experiment on hippocampus nerve cells (concentration of 10 μM) were 28% and 43%, respectively. This compound also had an IC50 in experiment [3] of 0.1 µM.
